Series [1] concerns the target T1, androgen receptor (AR) (Homo sapiens, UniProt P10275).
T1 sequence (P10275 1-920): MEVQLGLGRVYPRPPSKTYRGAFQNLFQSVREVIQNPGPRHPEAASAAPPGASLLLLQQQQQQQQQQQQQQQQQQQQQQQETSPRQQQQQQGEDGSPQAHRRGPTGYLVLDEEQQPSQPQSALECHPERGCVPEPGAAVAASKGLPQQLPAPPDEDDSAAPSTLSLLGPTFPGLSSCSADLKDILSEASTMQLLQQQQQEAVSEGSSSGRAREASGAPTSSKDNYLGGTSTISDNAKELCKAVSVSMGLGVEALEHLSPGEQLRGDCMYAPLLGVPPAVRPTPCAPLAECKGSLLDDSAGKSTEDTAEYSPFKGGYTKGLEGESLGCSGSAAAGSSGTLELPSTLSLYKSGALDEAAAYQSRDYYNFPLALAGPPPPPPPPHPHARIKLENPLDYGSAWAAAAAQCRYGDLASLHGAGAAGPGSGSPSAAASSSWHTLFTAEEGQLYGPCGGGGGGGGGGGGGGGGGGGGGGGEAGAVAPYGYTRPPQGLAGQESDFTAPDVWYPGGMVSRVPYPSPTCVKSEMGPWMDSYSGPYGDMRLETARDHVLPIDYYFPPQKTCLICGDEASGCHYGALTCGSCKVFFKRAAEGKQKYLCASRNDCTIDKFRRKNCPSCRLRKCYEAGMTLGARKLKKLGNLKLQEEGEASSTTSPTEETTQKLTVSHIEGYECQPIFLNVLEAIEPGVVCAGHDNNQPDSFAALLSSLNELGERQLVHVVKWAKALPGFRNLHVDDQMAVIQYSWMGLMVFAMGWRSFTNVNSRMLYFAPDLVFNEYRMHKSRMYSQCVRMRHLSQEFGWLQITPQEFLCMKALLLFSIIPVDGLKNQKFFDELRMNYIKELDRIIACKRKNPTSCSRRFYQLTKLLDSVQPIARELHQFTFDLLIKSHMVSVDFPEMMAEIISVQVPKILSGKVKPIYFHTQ
Description: SARD mediated AR degradation (western blot). The settings on record: for AR degradation (in words): at the concentrations assayed.

Series [2] concerns AR-independent HEK293 cells. Description: General cell toxicity in AR-independent HEK293 cells. The series is classed as cell-based. The settings on record: HEK293, 1 μM, 48 h. The procedure:
(§1) FIG. 26, comprising FIGS. 26A-26C, is a series of graphs illustrating in vitro activity of SARDS compounds. FIG. 26A: effect of SARDS on cell proliferation of LnCAPs. FIG. 26B: effect of SARDS on the proliferation of non-AR dependent cell lines. FIG. 26C: effect of SARDS on androgen independent prostate cancer cells.
(§2) To access general cell toxicity, AR-independent HEK293 and HELA cells were treated with 1 μM SARD 279.

Series [3] relates to AR-independent HELA cells. Description: General cell toxicity in AR-independent HELA cells. The series is classed as cell-based. Particulars: 1 μM, 48 h. The procedure:
as §1, §2

In series [4] the test system is androgen dependent LnCAP cells. Description: Proliferation of androgen dependent LnCAP prostate cancer cells. The series is classed as cell-based. The settings on record: 1 μM, several days.
From the text: as §1

As for `CC1(C)C(=O)N(c2ccc(C#N)c(C(F)(F)F)c2)C(=S)N1CCCCO` [RU 59063, 4-[3-(4-hydroxybutyl)-4,4-dimethyl-5-oxo-2-thioxoimidazolidin-1-yl]-2-(trifluoromethyl)benzonitrile, reference compound], in series [1], the “AR degradation (in words)” value was “no degradation was detected”. Regarding `CC1(C)C(=O)N(c2ccc(C#N)c(C(F)(F)F)c2)C(=S)N1CCCC(=O)NCCOCCOC(=O)CC12CC3CC(CC(C3)C1)C2` [SARD 279, 2-(2-(4-(3-(4-Cyano-3-(trifluoromethyl)phenyl)-5,5-dimethyl-4-oxo-2-thioxoimidazolidin-1-yl)butanamido)ethoxy)ethyl 2-(adamantan-1-yl)acetate], the DC50 in series [1] (read-out: DC50 (half maximum degradation concentration) of AR, AR degradation, western blot) worked out at 1000 nM. The “Cytotoxicity compared to vehicle” value in series [2] and in series [3] was “did not display cytotoxic results” in each case.

In the case of `CCOCCOCCNC(=O)CCCN1C(=S)N(c2ccc(C#N)c(C(F)(F)F)c2)C(=O)C1(C)C` [SARD 280, 4-(3-(4-Cyano-3-(trifluoromethyl)phenyl)-5,5-dimethyl-4-oxo-2-thioxoimidazolidin-1-yl)-N-(2-(2-ethoxyethoxyl)ethyl)butanamide], the “AR degradation (in words)” value in series [1] was “affected degradation only at higher concentrations and did not achieve complete AR degradation at the concentrations assayed”.

In the case of `CC1(C)C(=O)N(c2ccc(C#N)c(C(F)(F)F)c2)C(=S)N1CCCC(=O)NCCOCCOCCOCCOC12CC3CC(CC(C3)C1)C2` [SARD 033, N-(2-(2-(2-(2-(Adamantan-1-yloxy)ethoxy)ethoxy)ethoxy)ethyl)-4-(3-(4-cyano-3-(trifluoromethyl)phenyl)-5,5-dimethyl-4-oxo-2-thioxoimidazolidin-1-yl)butanamide], in series [4], the “Cell growth / proliferation of LnCAP cells” value is “significantly attenuated cell growth”.
